Reference: patent US10280149B2, “Therapeutic compounds and uses thereof” (GENENTECH, INC., priority 2015, dated 2019)
pIC50: −log10 of the molar value. Structures can show the parent of a compound that is named as a salt.

Target: Full length KDM2B (Homo sapiens (Human), UniProt Q8NHM5)
Assay: KDM2B TR-FRET assay for determining inhibitor IC50
Type: biochemical
Conditions: TR-FRET (HTRF), biotin-H3K36me2 peptide substrate, 2-OG 0.3 μM or 6 μM
Description: KDM2B TR-FRET Assay for Determining Inhibitor IC50
The KDM2B TR-FRET Assay described above represents an additional embodiment of the invention.

Sequence of Full length KDM2B (Q8NHM5 whole entry): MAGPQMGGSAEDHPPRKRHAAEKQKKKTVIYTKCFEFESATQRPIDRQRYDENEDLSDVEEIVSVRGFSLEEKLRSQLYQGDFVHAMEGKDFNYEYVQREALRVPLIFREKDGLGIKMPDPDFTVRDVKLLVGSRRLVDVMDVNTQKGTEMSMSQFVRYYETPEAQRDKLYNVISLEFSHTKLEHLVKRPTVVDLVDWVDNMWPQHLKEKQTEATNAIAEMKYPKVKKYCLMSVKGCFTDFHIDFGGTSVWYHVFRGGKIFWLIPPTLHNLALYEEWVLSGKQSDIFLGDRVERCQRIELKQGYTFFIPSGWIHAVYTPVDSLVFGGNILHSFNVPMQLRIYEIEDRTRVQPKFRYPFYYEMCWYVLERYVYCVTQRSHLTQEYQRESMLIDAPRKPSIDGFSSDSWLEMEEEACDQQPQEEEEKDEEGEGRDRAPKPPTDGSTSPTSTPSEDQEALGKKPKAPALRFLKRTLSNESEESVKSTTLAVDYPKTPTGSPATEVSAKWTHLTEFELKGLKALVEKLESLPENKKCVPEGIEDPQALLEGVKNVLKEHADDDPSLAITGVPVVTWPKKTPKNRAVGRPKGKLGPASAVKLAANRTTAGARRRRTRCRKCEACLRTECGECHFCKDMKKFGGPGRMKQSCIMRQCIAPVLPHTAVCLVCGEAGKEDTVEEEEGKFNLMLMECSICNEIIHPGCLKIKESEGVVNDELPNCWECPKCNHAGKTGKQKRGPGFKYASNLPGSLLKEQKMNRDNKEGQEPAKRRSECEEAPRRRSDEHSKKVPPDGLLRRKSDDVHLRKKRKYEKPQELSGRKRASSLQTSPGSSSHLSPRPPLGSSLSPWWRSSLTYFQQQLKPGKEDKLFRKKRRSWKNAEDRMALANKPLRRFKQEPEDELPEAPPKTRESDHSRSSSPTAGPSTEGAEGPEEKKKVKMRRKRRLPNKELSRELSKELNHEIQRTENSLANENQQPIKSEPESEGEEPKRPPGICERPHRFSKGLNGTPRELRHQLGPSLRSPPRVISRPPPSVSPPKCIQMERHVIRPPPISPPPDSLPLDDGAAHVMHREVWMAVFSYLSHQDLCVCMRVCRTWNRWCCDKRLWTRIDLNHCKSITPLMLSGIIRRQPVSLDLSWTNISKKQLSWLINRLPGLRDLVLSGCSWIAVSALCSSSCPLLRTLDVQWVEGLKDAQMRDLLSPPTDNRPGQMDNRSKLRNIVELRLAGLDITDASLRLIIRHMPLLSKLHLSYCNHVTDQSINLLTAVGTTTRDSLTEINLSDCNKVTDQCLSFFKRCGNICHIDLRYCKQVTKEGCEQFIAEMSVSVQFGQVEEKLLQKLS

Row | Compound | pIC50
1 | Cc1noc2cc(C(=O)C3CCCN(CC4CC4)C3)ccc12 (centres unmarked) [Example 129, (1-(cyclopropylmethyl)piperidin-3-yl)(3-methylbenzo[d]isoxazol-6-yl)methanone] | 6.31
2 | Cn1c(=O)n(C)c2cc(C(=O)C3CCCN(CC4CC4)C3)ccc21 (centres unmarked) [Example 130, 5-(1-(cyclopropylmethyl)piperidine-3-carbonyl)-1,3-dimethyl-1H-benzo[d]imidazol-2-one] | 6.35
3 | O=C(c1ccc2c(c1)CCCCC2)C1CCCN(C2CCC2)C1 (centres unmarked) [Example 132, (1-cyclobutylpiperidin-3-yl)(6,7,8,9-tetrahydro-5H-benzo[7]annulen-2-yl)methanoe] | 7.26
4 | O=C(c1ccc2c(c1)CCCC2)C1CCCN(C2CCC2)C1 (centres unmarked) [Example 133, (1-cyclobutyl-3-piperidyl)-tetralin-6-yl-methanone] | 6.99
5 | O=C(c1ccc2cnccc2c1)C1CCCN(C2CCC2)C1 (centres unmarked) [Example 135] | 6.65
6 | COc1ccc2cc(C(=O)C3CN(CC4CC4)CCC3c3ccccc3)ccc2c1 (centres unmarked) [Example 145, (1-(cyclopropylmethyl)-4-phenylpiperidin-3-yl)(6-methoxynaphthalen-2-yl)methanone] | 6.51
7 | CS(=O)(=O)N1CCc2cc(C(=O)C3CCCN(C4CCC4)C3)ccc2C1 (centres unmarked) [Example 149, (1-cyclobutylpiperidin-3-yl)(2-(methylsulfonyl)-1,2,3,4-tetrahydroisoquinolin-6-yl)methanone] | 6.79
8 | O=C(c1ccc2c(O)cccc2c1)C1CCCN(CC2CC2)C1 (centres unmarked) [Example 150, (1-(cyclopropylmethyl)piperidin-3-yl)(5-hydroxynaphthalen-2-yl)methanone] | 6.88
9 | O=C(c1ccc2cc(CO)ccc2c1)C1CCCN(CC2CC2)C1 (centres unmarked) [Example 152, (1-(cyclopropylmethyl)piperidin-3-yl)(6-(hydroxymethyl)naphthalen-2-yl)methanone] | 6.63
10 | O=C(c1ccc2cc(CO)ccc2c1)C1CCCN(C2CCC2)C1 (centres unmarked) [Example 153, (1-cyclobutylpiperidin-3-yl)(6-(hydroxymethyl)naphthalen-2-yl)methanone] | 6.39
11 | O=C(c1ccc2cc(CO)ccc2c1)C1CCCN(C2CCCC2)C1 (centres unmarked) [Example 154, (1-cyclopentylpiperidin-3-yl)(6-(hydroxymethyl)naphthalen-2-yl)methanone] | 6.74
12 | COc1ccc2cc(C(=O)C3CC(O)CN(CC4CC4)C3)ccc2c1 (centres unmarked) [Example 155, (1-(cyclopropylmethyl)-5-hydroxypiperidin-3-yl)(6-methoxynaphthalen-2-yl)methanone] | 6.11
13 | N#Cc1ccc2cc(C(=O)C3CCCN(CC4CC4)C3)ccc2c1 (centres unmarked) [Example 159, 6-(1-(cyclopropylmethyl)piperidine-3-carbonyl)-2-naphthonitrile] | 7.16
14 | CC1CCN(C2CCCC2)CC1C(=O)c1ccc2cc(C#N)ccc2c1 (centres unmarked) [Example 162a, 6-(1-cyclopentyl-4-methylpiperidine-3-carbonyl)-2-naphthonitrile] | 6.09
15 | CC1CC1CN1CCCC(C(=O)c2ccc3cc(C#N)ccc3c2)C1 (centres unmarked) [Example 164, 6-(1-((2-methylcyclopropyl)methyl)piperidine-3-carbonyl)-2-naphthonitrile] | 6.36
16 | Cc1ccc2cc(C(=O)C3CCCN(C4CCC4)C3)ccc2c1 (centres unmarked) [Example 165, (1-cyclobutylpiperidin-3-yl)(6-methylnaphthalen-2-yl)methanone hydrochloride] | 6.79
17 | Cc1ccc2cc(C(=O)C3CCCN(C4CCCC4)C3)ccc2c1 (centres unmarked) [Example 166, (1-cyclopentylpiperidin-3-yl)(6-methylnaphthalen-2-yl)methanone] | 6.62
18 | CS(=O)(=O)c1ccc2cc(C(=O)C3CCCN(CC4CC4)C3)ccc2c1 (centres unmarked) [Example 169, (1-(cyclopropylmethyl)piperidin-3-yl)(6-(methylsulfonyl)naphthalen-2-yl)methanone] | 6.95
19 | CS(=O)(=O)c1ccc2cc(C(=O)C3CCCN(C4CCC4)C3)ccc2c1 (centres unmarked) [Example 170, (1-cyclobutylpiperidin-3-yl)(6-(methylsulfonyl)naphthalen-2-yl)methanone] | 7.37

Row | Compound | pIC50
20 | CS(=O)(=O)c1ccc2cc(C(=O)C3CCCN(C4CCCC4)C3)ccc2c1 (centres unmarked) [Example 171, (1-cyclopentylpiperidin-3-yl)(6-(methylsulfonyl)naphthalen-2-yl)methanone] | 6.99
21 | Cc1ccc2cc(C(=O)C3CCCN(CC4CC4)C3)ccc2n1 (centres unmarked) [Example 173] | 6.59
22 | O=C(Nc1ccc2cc(C(=O)C3CCCN(CC4CC4)C3)ccc2c1)C1CC1 (centres unmarked) [Example 175] | 6.45
23 | CN(C)C(=O)c1ccc2cc(C(=O)C3CCCN(CC4CC4)C3)ccc2c1 (centres unmarked) [Example 176, 6-(1-(cyclopropylmethyl)piperidine-3-carbonyl)-N,N-dimethyl-2-naphthamide] | 6.67
24 | CN(C)C(=O)c1ccc2cc(C(=O)C3CCCN(C4CCC4)C3)ccc2c1 (centres unmarked) [Example 177, 6-(1-cyclobutylpiperidine-3-carbonyl)-N,N-dimethyl-2-naphthamide] | 6.95
25 | CN(C)C(=O)c1ccc2cc(C(=O)C3CCCN(C4CCCC4)C3)ccc2c1 (centres unmarked) [Example 178] | 6.73
26 | COc1ccc2cc(C(=O)C3CCCN(CC4CC4)C3)ccc2c1CO (centres unmarked) [Example 188, (1-(cyclopropylmethyl)piperidin-3-yl)(5-(hydroxymethyl)-6-methoxynaphthalen-2-yl)methanone hydrochloride] | 6.88
27 | COc1ccc2cc(C(=O)C3CCCN(C4CCC4)C3)ccc2c1CO (centres unmarked) [Example 189, (1-cyclobutylpiperidin-3-yl)(5-(hydroxymethyl)-6-methoxynaphthalen-2-yl)methanone hydrochloride] | 7.26
28 | CCN1CCN(C2CCC2)CC1C(=O)c1ccc2cc(OC)ccc2c1 (centres unmarked) [Example 190] | 6.01
29 | COc1ccc2cc(C(=O)C3CN(C4CCC4)CCN3Cc3ccccc3)ccc2c1 (centres unmarked) [Example 191, (1-benzyl-4-cyclobutyl-piperazin-2-yl)-(6-methoxy-2-naphthyl)methanone] | 6.99
30 | COc1ccc2cc(C(=O)C3CN(C4CCC4)CCN3CC3CC3)ccc2c1 (centres unmarked) [Example 192, [4-cyclobutyl-1-(cyclopropylmethyl)piperazin-2-yl]-(6-methoxy-2-naphthyl)methanone] | 6.41
31 | COc1ccc2cc(C(=O)C3CN(C4CCC4)CCN3Cc3cccc(C#N)c3)ccc2c1 (centres unmarked) [Example 193, 3-[[4-cyclobutyl-2-(6-methoxynaphthalene-2-carbonyl)piperazin-1-yl]methyl]benzonitrile] | 7.65
32 | COc1ccc2cc(C(=O)C3CN(C4CCC4)CCN3C)ccc2c1 (centres unmarked) [Example 194, (4-cyclobutyl-1-methyl-piperazin-2-yl)-(6-methoxy-2-naphthyl)methanone] | 5.77
33 | COc1ccc2cc(C(=O)C3CN(C4CCC4)CCN3Cc3ccccc3C#N)ccc2c1 (centres unmarked) [Example 195, 2-[[4-cyclobutyl-2-(6-methoxynaphthalene-2-carbonyl)piperazin-1-yl]methyl]benzonitrile] | 6.75
34 | COc1ccc2cc(C(=O)C3CN(C4CCC4)CCN3Cc3ccc(C)cc3)ccc2c1 (centres unmarked) [Example 196, [4-cyclobutyl-1-(p-tolylmethyl)piperazin-2-yl]-(6-methoxy-2-naphthyl)methanone] | 6.86
35 | COc1ccc2cc(C(=O)C3CN(C4CCC4)CCN3Cc3ccc4ccccc4c3)ccc2c1 (centres unmarked) [Example 197, [4-cyclobutyl-1-(2-naphthylmethyl)piperazin-2-yl]-(6-methoxy-2-naphthyl)methanone] | 6.78
36 | COc1ccc2cc(C(=O)C3CN(C4CCC4)CCN3Cc3cccc(C(F)(F)F)c3)ccc2c1 (centres unmarked) [Example 198, [4-cyclobutyl-1-[[3-(trifluoromethyl)phenyl]methyl]piperazin-2-yl]-(6-methoxy-2-naphthyl)methanone] | 6.52
37 | COc1ccc2cc(C(=O)C3CN(C4CCC4)CCN3Cc3ccc(C#N)cc3)ccc2c1 (centres unmarked) [Example 199, 4-[[4-cyclobutyl-2-(6-methoxynaphthalene-2-carbonyl)piperazin-1-yl]methyl]benzonitrile] | 7.51
38 | (1-(cyclopropylmethyl)-4-methylpiperidin-3-yl)(6-methoxynaphthalen-2-yl)methanone [Example 137a] | 7.15
